Common to all, as to format: physicochemical
Series [1] can be described thus: Water solubility of the salt. The source says:
(§1) The salts of the present invention which are derived from aryl substituted amines and 2,3-diacyl-tartaric acids have a number of advantages over other salts derived from aryl substituted amines and other acids, such as fumaric acid or galactaric acid. […] As such, the di-p-toluoyl-D-tartrate salt of (2S)-(4E)-N-methyl-5-[3-(5-isopropoxypyridin)yl)]-4-penten-2-amine is a free-flowing crystalline powder; and such a property is a definite advantage for pharmaceutical formulation development and pharmaceutical manufacturing. If necessary, this salt can be milled to an acceptable particle size range for pharmaceutical processing. […] The salt is compatible with a wide range of excipients that might be chosen for the manufacture of solid oral dosage forms. This is especially so for those exicipients, such polysaccharide derivatives, that are pharmaceutically defined hydrates and those with only loosely bound surface water. As an illustration, salts derived from certain aryl substituted amines, such as E-metanicotine and fumaric acid are prone to the formation of impurities within the salt. For example, impurities arise from the Michael addition reaction of the secondary amine in E-metanicotine to the olefin in fumaric acid. These impurities lower the chemical purity of the salt and adversely affect the chemical integrity of the salt upon long-term storage. […]

Series [2] can be described thus: Water absorption (hygroscopicity) of the salt.
Text: as §1

Series [3] can be described thus: Physical and chemical stability of the salt.
Text: as §1

Molecules are shown by their SMILES.

Regarding `CN[C@@H](C)C/C=C/c1cncc(OC(C)C)c1` [Sample No. 2, (2S)-(4E)-N-methyl-5-[3-(5-isopropoxypyridin)yl]-4-penten-2-amine hemi-(di-p-toluoyl-D-tartrate)], in series [1], the water solubility entry is reported as “water soluble”. Also, the “amount of water absorbed” value in series [2] (room temperature and 90% relative humidity) worked out at 3.2%. Further, the stability entry in series [3] is “physically and chemically stable”.

On to `CN[C@@H](C)C/C=C/c1cncc(OC(C)C)c1.CN[C@@H](C)C/C=C/c1cncc(OC(C)C)c1.O=C(O)[C@@H](O)[C@H](O)[C@H](O)[C@@H](O)C(=O)O` [hemigalactarate of (2S)-(4E)-N-methyl-5-[3-(5-isopropoxypyridin)yl)]-4-penten-2-amine, reference compound], for which, in series [2] (40° C. and 70% relative humidity), the “amount of water absorbed” value is 11.8%.

The record behind these values is US6432954B1, “Pharmaceutical compositions and methods for use” (Targacept, Inc., priority 2000, dated 2002).
